{"source": "patent US7488592B2", "about": "“Human protein acyl transferases and methods of uses therefor” (Washington University, priority 2003, dated 2009)", "key": {"yeast Erf2p/Erf4p": {"biological_target": "T1, yeast Erf2p/Erf4p (Saccharomyces cerevisiae, UniProt Q06551)", "T1 construct": "made in house; host or cells: S. cerevisiae RJY543 (galactose-induced)", "T1 sequence (Q06551 1-359)": "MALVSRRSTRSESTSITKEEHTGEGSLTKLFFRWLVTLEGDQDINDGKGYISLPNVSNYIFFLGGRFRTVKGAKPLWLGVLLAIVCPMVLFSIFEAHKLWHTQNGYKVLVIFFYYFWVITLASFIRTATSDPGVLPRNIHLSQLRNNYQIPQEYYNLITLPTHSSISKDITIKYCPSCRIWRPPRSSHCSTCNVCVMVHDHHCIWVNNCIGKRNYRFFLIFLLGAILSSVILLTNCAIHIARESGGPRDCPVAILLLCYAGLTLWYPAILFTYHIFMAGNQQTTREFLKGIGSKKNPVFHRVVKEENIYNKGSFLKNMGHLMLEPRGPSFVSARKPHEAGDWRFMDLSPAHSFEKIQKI", "T1 sequence (P41912 1-237 partner)": "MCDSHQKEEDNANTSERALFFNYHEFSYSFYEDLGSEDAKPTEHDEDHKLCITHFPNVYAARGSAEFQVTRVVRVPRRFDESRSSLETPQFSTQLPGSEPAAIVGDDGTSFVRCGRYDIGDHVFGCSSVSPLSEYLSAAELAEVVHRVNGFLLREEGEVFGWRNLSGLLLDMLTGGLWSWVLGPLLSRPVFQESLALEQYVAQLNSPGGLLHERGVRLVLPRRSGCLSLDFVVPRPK", "experiment": "Ras PAT assay: [3H]palmitate incorporation into GST-Ras(HV)CCaaX by partially purified Erf2p/Erf4p, with competitor or inhibitor", "format": "biochemical, S. cerevisiae", "settings": "0.5 μM [3H]palmitoyl-CoA; for effectiveness as competitor of the radioactive Ras PAT reaction (in words): unlabeled acyl-CoA at concentrations similar to 8 μM, FIG. 17", "experimental": "FIG. 17—Concentration dependent inhibition of yeast PAT activity by acyl-CoAs. Partially purified yeast Erf2p/Erf4p was assayed for PAT activity in the presence of 0.5 μM [^3H]palmitoyl-CoA and the indicated concentrations of unlabeled acyl-CoA substrates as indicated: decanoyl-CoA (C10:0), lauroyl-CoA (C12:0), myristoyl-CoA (C14:0), palmitoyl-CoA (C16:0), palmitoleoyl-CoA (C16:1), stearoyl-CoA (C18:0), and oleoyl-CoA (C18:1). Radiolabeled palmitoylated GST-Ras(HV)CCaaX was excised from the gel and quantitated. Results are expressed as a percent of Ras PAT activity in the absence of competitor (100%).\nFIG. 18—Inhibition of Erf2p/Erf4p-dependent PAT by 2-bromopalmitate. Partially purified Erf2p/Erf4p was assayed for palmitoyltransferase activity using GST-Ras(HV)CCaaX (1.33 μM) and 0.5 μM [^3H]palmitoyl-CoA as substrate. Radiolabeled palmitoylated GST-Ras(HV)CCaaX was excised from the gel and quantitated. Results are expressed as a percent of Ras PAT activity in the absence of competitor (100%).\nRas PAT Assays—Ras PAT activity was assayed by measuring the incorporation of tritiated palmitate. [^3H]palmitoyl-CoA substrate was synthesized from [^3H]palmitic acid (NEN) and Coenzyme A using acyl-CoA synthetase (Sigma) and purified as described (Taylor et al., 1990). The PAT assay (25 μl of final volume) was performed by adding 1.5 μg of GST-Ras(HV)CCaaX(2 μM) to GST-Erf4p/FLAG-Erf2p GSH beads in 1 mM DTT, 100 mM MES (pH 6.3). The reaction was started by the addition of 1 μl of [^3H]palmitoyl-CoA (0.5 μM), incubated for 15 min at 30° C., and terminated by the addition of 5 μl of a 5× solution of SDS gel loading buffer without DTT. Heat inactivation was performed by boiling (100° C., 15 min) the GSH beads containing GST-Erf4p/FLAG-Erf2p prior to the addition of substrates. The assays were analyzed by SDS-PAGE using Bis-Tris gels, pH 6.4 (Nu-PAGE®), and subjected to fluorography as described (Mitchell et al., 1994). Quantitation of Ras PAT activity was done by excising Ras protein bands from the gel, solubilizing them in Soluene S-350 (Packard), and counting in a scintillation counter.\nThe lipid substrate specificity of Ras PAT was investigated by adding increasing amounts of unlabeled acyl-CoA competitors to the radioactive Ras PAT reaction. […] Decanoyl (C10:0) was ineffective at similar concentrations. […] Both saturated and unsaturated fatty acyl-CoAs were effective inhibitors. Little difference was observed between C16:0 and C16:1, or C18:0 and C18:1. The lack of complete acyl-CoA substrate specificity of Ras PAT is consistent with the finding that thioester-linked fatty acids on protein are heterogeneous in vivo (Linder, 2001).\nInhibition of autopalmitoylation or substrate palmitoylation can come about by substrates or substrate analogs. […] The lipid substrate specificity of yeast Erf2p/Erf4p for Ras palmitoylation was investigated by adding increasing amounts of unlabeled acyl-CoA competitors to the radioactive Ras PAT reaction. […] Decanoyl (C10:0) was ineffective at similar concentrations. […] Both saturated and unsaturated fatty acyl-CoAs were effective inhibitors. Little difference was observed between C16:0 and C16:1, or C18:0 and C18:1. The lack of complete acyl-CoA substrate specificity of Ras PAT is consistent with the finding that thioester-linked fatty acids on protein are heterogeneous in vivo (Linder, 2001). […]"}, "Erf2p/Erf4p complex": {"biological_target": "T2, Erf2p/Erf4p complex (Saccharomyces cerevisiae, UniProt Q06551)", "T2 construct": "FLAG (N); made in house", "T2 sequence (Q06551 1-359)": "T1 sequence (Q06551 1-359)", "T2 sequence (P41912 1-237 partner)": "T1 sequence (P41912 1-237 partner)", "experiment": "Autopalmitoylation of Erf2p, microtiter plate assay with [3H]palmitoyl CoA", "format": "biochemical, yeast", "settings": "2-bromopalmitate 16, 63 or 250 μM; 30 minutes at 25 °C; no substrate", "experimental": "FIG. 19—Inhibition of autopalmitoylation of Erf2p. Partially purified […]/GST-Erf4p (2.7 nM) was bound to the well of a GSH coated microtiter plate. The complex was incubated in reaction buffer (122 mM NaCl, 183 mM Tris HCl pH 7.8, 0.6 mM DTT and 0.035% Triton X-100) (registered trademark of Union Carbide Chemicals and Plastics Co., Inc. for a compound of formula C14H22O(C2H4O)n (CAS No. 9002-93-1); hereinafter referred to as “Triton X-100”))in the presence or absence of 2-bromopalmitate (16 .μ.M, 63 .μ.M or 250 .μ.M). The autopalmitoylation reaction was initiated by addition of 5 .μ.l of 3 .μ.M [^ 3H]palmitoyl CoA and the reaction was incubated for 30 minutes at 25 ° C. The wells were washed (3 × 200 .μ.l 20 mM phosphate pH 6 with 1% Triton X-100) and 3 × 200 .μ.l 25% ipa in water. Finally, wash with 2 × 200 .μ.l 20 mM phosphate pH 6 with 150 mM NaCl. The wells were counted in scintillation fluid.\nThe inventors tested whether 2-BP inhibits autopalmitoylation of yeast Erf2p."}, "PAT": {"tested_on": "PAT", "settings": "reported by Webb et al., 2000; cited from earlier work"}}, "data": [{"smiles": "CCCCCCCCCC(=O)SCCNC(=O)CCNC(=O)[C@H](O)C(C)(C)COP(=O)(O)OP(=O)(O)OC[C@H]1O[C@@H](n2cnc3c(N)ncnc32)[C@H](O)[C@@H]1OP(=O)(O)O", "note": "[Decanoyl, decanoyl-CoA]", "values": [{"measurement": "effectiveness as competitor of the radioactive Ras PAT reaction (in words)", "setting": "yeast Erf2p/Erf4p", "value": "ineffective"}]}, {"smiles": "CCCCCCCCCCCCCCCC(=O)SCCNC(=O)CCNC(=O)[C@H](O)C(C)(C)COP(=O)(O)OP(=O)(O)OC[C@H]1O[C@@H](n2cnc3c(N)ncnc32)[C@H](O)[C@@H]1OP(=O)(O)O", "note": "[palmitoyl-CoA]", "values": [{"measurement": "inhibition of Ras PAT activity by unlabeled acyl-CoA competitor", "setting": "yeast Erf2p/Erf4p; 8 μM competitor, a 16-fold excess", "value": 90, "unit": "%"}]}, {"smiles": "CCCCCCCCCCCC(=O)SCCNC(=O)CCNC(=O)[C@H](O)C(C)(C)COP(=O)(O)OP(=O)(O)OC[C@H]1O[C@@H](n2cnc3c(N)ncnc32)[C@H](O)[C@@H]1OP(=O)(O)O", "note": "[Lauryl, lauroyl-CoA]", "values": [{"measurement": "effectiveness as competitor of the radioactive Ras PAT reaction (in words)", "setting": "yeast Erf2p/Erf4p", "value": "more effective"}]}, {"smiles": "CCCCCCCCCCCCCC(=O)SCCNC(=O)CCNC(=O)[C@H](O)C(C)(C)COP(=O)(O)OP(=O)(O)OC[C@H]1O[C@@H](n2cnc3c(N)ncnc32)[C@H](O)[C@@H]1OP(=O)(O)O", "note": "[myristoyl, myristoyl-CoA]", "values": [{"measurement": "effectiveness as competitor of the radioactive Ras PAT reaction (in words)", "setting": "yeast Erf2p/Erf4p", "value": "more effective"}]}, {"smiles": "CCCCCCCCCCCCCCC(Br)C(=O)O", "note": "(stereo not shown) [2-BP, 2-Bromopalmitate]", "values": [{"measurement": "inhibition of Erf2/Erf4-dependent PAT activity using yeast Ras2 as a substrate (in words)", "setting": "yeast Erf2p/Erf4p; increasing concentrations of 2-BP, GST-Ras(HV)CCaaX 1.33 μM", "value": "inhibits"}, {"measurement": "inhibition of autopalmitoylation of Erf2p (in words)", "setting": "Erf2p/Erf4p complex", "value": "inhibited in a dose-dependent manner"}, {"measurement": "inhibition of PAT activity in vivo (in words)", "setting": "PAT", "value": "inhibit PAT activity in vivo"}]}]}
